Reference: patent US20190284168A1, “PYRAZOLE DERIVATIES AS SGC STIMULATORS” (IRONWOOD PHARMACEUTICALS, INC., priority 2014, published 2019)
Read-outs that look alike come from different tables or passages of the source.

Molecular target: T1, soluble guanylate cyclase (sGC) (Homo sapiens, UniProt Q02108+Q02153)
T1 construct: endogenously expressing soluble guanylate cyclase (sGC); endogenous in cells; host or cells: HEK293
T1 sequence (Q02153 1-619): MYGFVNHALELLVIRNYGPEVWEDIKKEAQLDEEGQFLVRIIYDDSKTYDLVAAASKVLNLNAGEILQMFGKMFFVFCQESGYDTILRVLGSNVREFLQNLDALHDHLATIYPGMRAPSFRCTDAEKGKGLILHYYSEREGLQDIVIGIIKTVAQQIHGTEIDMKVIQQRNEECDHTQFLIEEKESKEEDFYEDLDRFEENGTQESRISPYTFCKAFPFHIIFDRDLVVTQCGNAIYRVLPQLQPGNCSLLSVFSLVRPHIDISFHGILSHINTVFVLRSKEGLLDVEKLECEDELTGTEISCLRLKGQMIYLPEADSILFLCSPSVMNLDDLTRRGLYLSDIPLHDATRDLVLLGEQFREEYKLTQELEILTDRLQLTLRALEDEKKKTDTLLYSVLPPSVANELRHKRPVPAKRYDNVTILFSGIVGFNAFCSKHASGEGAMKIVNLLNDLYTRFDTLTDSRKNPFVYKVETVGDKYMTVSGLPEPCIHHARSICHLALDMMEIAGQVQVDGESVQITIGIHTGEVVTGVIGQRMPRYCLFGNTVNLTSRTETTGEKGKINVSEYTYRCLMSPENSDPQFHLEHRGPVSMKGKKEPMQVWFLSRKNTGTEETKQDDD
T1 sequence (Q02108 1-690): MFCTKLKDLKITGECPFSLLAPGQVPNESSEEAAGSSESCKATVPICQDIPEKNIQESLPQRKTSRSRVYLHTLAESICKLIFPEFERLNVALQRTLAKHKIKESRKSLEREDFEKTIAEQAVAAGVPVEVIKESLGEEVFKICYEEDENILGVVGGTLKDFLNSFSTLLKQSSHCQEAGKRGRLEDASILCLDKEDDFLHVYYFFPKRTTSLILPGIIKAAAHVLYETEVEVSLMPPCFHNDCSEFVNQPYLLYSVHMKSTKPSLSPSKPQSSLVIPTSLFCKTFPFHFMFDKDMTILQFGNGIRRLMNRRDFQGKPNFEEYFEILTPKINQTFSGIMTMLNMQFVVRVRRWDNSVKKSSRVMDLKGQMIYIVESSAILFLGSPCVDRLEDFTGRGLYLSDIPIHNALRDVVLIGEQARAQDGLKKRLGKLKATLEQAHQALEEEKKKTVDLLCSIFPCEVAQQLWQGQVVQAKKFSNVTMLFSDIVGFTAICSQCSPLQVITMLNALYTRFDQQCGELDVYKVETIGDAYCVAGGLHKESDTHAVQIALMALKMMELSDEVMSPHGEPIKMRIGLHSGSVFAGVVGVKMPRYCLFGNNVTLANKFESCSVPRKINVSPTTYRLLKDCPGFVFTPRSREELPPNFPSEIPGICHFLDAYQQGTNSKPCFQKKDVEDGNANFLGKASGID
Assay: sGC-HEK-cGMP assay with LC/MS detection
Assay type: cell-based

[1] = HEK293 whole cells, LC/MS detection of cGMP, 10 μM DETA-NONOate, 50% of high control response (30 μM Compound Y), read-out: Absolute EC50 (nM)- binned (~)

Row | EC50 [1] [nM] | SMILES | EC50 [nM]
1 | 100 to 1000 | O=C(OCCNc1nc(-c2cc(-c3ccon3)n(Cc3ccccc3F)n2)ncc1F)C1CCCCN1 (stereo not drawn) [Compound 202] | –
2 | > 1000 | NC(=O)[C@](O)(CNc1nc(-c2cc(-c3ccon3)n(Cc3ccc(O)cc3F)n2)ncc1F)C(F)(F)F [Compound 195] | –
3 | > 1000 | O=C(CN1CCCCC1)OCCNc1nc(-c2cc(-c3ccon3)n(Cc3ccccc3F)n2)ncc1F [Compound 200] | –
4 | 100 to 1000 | C[C@@](CNc1nc(-c2cc(-c3ccon3)n(Cc3ccccc3F)n2)ncc1F)(NC(CO)c1ccccc1)C(F)(F)F (stereo partly drawn) [Compound 130, 2-phenyl-2-(((S)-1,1,1-trifluoro-3-((5-fluoro-2-(1-(2-fluorobenzyl)-5-(isoxazol-3-yl)-1H-pyrazol-3-yl)pyrimidin-4-yl)amino)-2-methylpropan-2-yl)amino)ethanol] | –
5 | > 1000 | Oc1cccc(F)c1Cn1nc(-c2ncc(F)c(O)n2)cc1-c1ccon1 [Compound 182] | –
6 | > 1000 | CCN(CC)c1nc(-c2cc(-c3ncco3)n(Cc3ccccc3F)n2)ncc1F [Compound 140] | –
7 | < 100 | CC(C)[C@H](CO)Nc1nc(-c2cc(-c3ccon3)n(Cc3ccccc3F)n2)ncc1F [Compound 148, (R)-2-((5-fluoro-2-(1-(2-fluorobenzyl)-5-(isoxazol-3-yl)-1H-pyrazol-3-yl)pyrimidin-4-yl)amino)-3-methylbutan-1-ol] | –
8 | 100 to 1000 | CC(=O)c1cc(-c2ncc(F)c(N[C@@H](CC(=O)O)C(C)C)n2)nn1Cc1ccccc1F [Compound 138, (S)-3-((2-(5-acetyl-1-(2-fluorobenzyl)-1H-pyrazol-3-yl)-5-fluoropyrimidin-4-yl)amino)-4-methylpentanoic acid] | –
9 | > 1000 | CC(=O)c1cc(-c2ncc(F)c(NCC(C)(O)C(N)=O)n2)nn1Cc1ccccc1F (stereo not drawn) [Compound 193] | –
10 | 100 to 1000 | CC(=O)c1cc(-c2ncc(F)c(N3CCC(C(=O)O)(C(C)C)CC3)n2)nn1Cc1ccccc1F [Compound 179] | –
11 | > 1000 | Oc1cccc(F)c1Cn1nc(-c2ncc(F)c(NCC(O)(C(F)(F)F)C(F)(F)F)n2)cc1-c1ccon1 [Compound 183] | –
12 | 100 to 1000 | CC(=O)c1cc(-c2ncc(F)c(NCC(O)CO)n2)nn1Cc1ccccc1F (stereo not drawn) [Compound 180] | –
13 | 100 to 1000 | CC(=O)c1cc(-c2ncc(F)c(N3CCC(C(=O)O)(c4ccccc4)CC3)n2)nn1Cc1ccccc1F [Compound 139, 1-(2-(5-acetyl-1-(2-fluorobenzyl)-1H-pyrazol-3-yl)-5-fluoropyrimidin-4-yl)-4-phenylpiperidine-4-carboxylic acid] | –
14 | 100 to 1000 | CS(=O)(=O)Nc1ccc(CNc2nc(-c3cc(-c4ccon4)n(Cc4ccccc4F)n3)ncc2F)cc1O [Compound 161, N-(4-(((5-fluoro-2-(1-(2-fluorobenzyl)-5-(isoxazol-3-yl)-1H-pyrazol-3-yl)pyrimidin-4-yl)amino)methyl)-2-hydroxyphenyl)methanesulfonamide] | –
15 | > 1000 | C[C@H]1CCCN(c2nc(-c3cc(-c4ccon4)n(Cc4ccccc4F)n3)ncc2F)[C@H]1C(=O)OCCN1CCOCC1 [Compound 157, (2R,3S)-2-morpholinoethyl 1-(5-fluoro-2-(1-(2-fluorobenzyl)-5-(isoxazol-3-yl)-1H-pyrazol-3-yl)pyrimidin-4-yl)-3-methylpiperidine-2-carboxylate] | –

Further lines, the compound ahead of its results:

Row | SMILES | EC50 [1] [nM] | EC50 [nM]
16 | NC(=O)C1CCN(c2nc(-c3cc(-c4ccon4)n(Cc4ccccc4F)n3)ncc2F)CC1 [Compound 60] | < 100 | –
17 | NC(=O)C(O)(CNc1nc(-n2cc(-c3ccon3)c(Cc3ccccc3F)n2)ncc1F)C(F)(F)F (stereo not drawn) [Compound 30] | 100 to 1000 | –
18 | CC(=O)c1cc(-c2ncc(F)c(NS(=O)(=O)CCC(F)(F)F)n2)nn1Cc1ccccc1F [Compound 96] | 100 to 1000 | –
19 | CC(=O)c1cc(-c2ncc(F)c(N(C)C[C@@H](C(=O)O)C(C)C)n2)nn1Cc1ccccc1F [Compound 73] | > 1000 | –
20 | CC(=O)c1cc(-c2ncc(F)c(N3CCNC(C(F)(F)F)C3)n2)nn1Cc1ccccc1F (stereo not drawn) [Compound 71] | 100 to 1000 | –
21 | CC(=O)c1cc(-c2ncc(F)c(N3CC4(COC4)C3)n2)nn1Cc1ccccc1F [Compound 118] | > 1000 | –
22 | NC(=O)c1nnc2n1CCN(c1nc(-c3cc(-c4ccon4)n(Cc4ccccc4F)n3)ncc1F)C2 [Compound 54] | < 100 | –
23 | CC1(C(=O)Nc2ccnc(-c3cc(-c4ccon4)n(Cc4ccccc4F)n3)n2)CCNC1=O (stereo not drawn) [Compound 59] | 100 to 1000 | –
24 | CC(N)(CNc1nc(-c2cc(-c3ccon3)n(Cc3ccccc3F)n2)ncc1F)C1CC1 (stereo not drawn) [Compound 67] | 100 to 1000 | –
25 | CCC(C)(N)C(=O)Nc1ccnc(-c2cc(-c3ccon3)n(Cc3ccccc3F)n2)n1 (stereo not drawn) [Compound 47] | 100 to 1000 | –
26 | NC1(CNc2nc(-c3cc(-c4ccon4)n(Cc4ccccc4F)n3)ncc2F)CC1 [Compound 68] | 100 to 1000 | –
27 | CC(C)(C(=O)O)C(=O)Nc1ccnc(-c2cc(-c3ccon3)n(Cc3ccccc3F)n2)n1 [Compound 49] | > 1000 | –
28 | CC(=O)c1cc(-c2ncc(F)c(NCC(O)(C(N)=O)C(F)(F)F)n2)nn1Cc1ccccc1F (stereo not drawn) [Compound 85] | 100 to 1000 | –
29 | NC(=O)CNc1cnc(-c2cc(-c3ccon3)n(Cc3ccccc3F)n2)nc1 [Compound 6] | > 1000 | –
30 | CC(=O)c1cc(-c2ncc(F)c(N3CC[C@H](O)[C@H](O)C3)n2)nn1Cc1ccccc1F [Compound 116] | 100 to 1000 | –
31 | Fc1ccccc1Cn1nc(-c2ncc(F)c(Nc3nnc(C(F)(F)F)[nH]3)n2)cc1-c1ccon1 [Compound 12] | > 30000 | –
32 | O=[N+]([O-])c1cnc(-c2cc(-c3ccon3)n(Cc3ccccc3F)n2)nc1NCCO [Compound 7] | > 30000 | –

Row | SMILES | EC50 [1] [nM] | EC50 [nM]
33 | CC(O)(C(N)=O)C(=O)Nc1ccnc(-c2cc(-c3ccon3)n(Cc3ccccc3F)n2)n1 (stereo not drawn) [Compound 36] | 100 to 1000 | –
34 | CC(=O)c1cc(-c2ncc(F)c(N3CCS(=O)(=O)C(C)(C)C3)n2)nn1Cc1ccccc1F [Compound 115] | > 1000 | –
35 | COCc1cc(-c2ncc(F)c(NCC(O)(C(N)=O)C(F)(F)F)n2)nn1Cc1ccccc1F (stereo not drawn) [Compound 20] | > 30000 | –
36 | CC(C)(N)C(=O)Nc1ccnc(-c2cc(-c3ccon3)n(Cc3ccccc3F)n2)n1 [Compound 33] | > 1000 | –
37 | OCC(O)CNc1cnc(-c2cc(-c3ccon3)n(Cc3ccccc3F)n2)nc1 (stereo not drawn) [Compound 21] | > 1000 | –
38 | CC(=O)c1cc(-c2ncc(F)c(N(C)CC3(C(N)=O)CC3)n2)nn1Cc1ccccc1F [Compound 99] | 100 to 1000 | –
39 | CCC(C)(N)CNc1nc(-c2cc(-c3ccon3)n(Cc3ccccc3F)n2)ncc1F (stereo not drawn) [Compound 55] | 100 to 1000 | –
40 | COC1CCN(c2nc(-c3cc(C(C)=O)n(Cc4ccccc4F)n3)ncc2F)C1 (stereo not drawn) [Compound 80] | 100 to 1000 | –
41 | Nc1nnc(C(O)(CNc2nc(-c3cc(-c4ccon4)n(Cc4ccccc4F)n3)ncc2F)C(F)(F)F)o1 (stereo not drawn) [Compound 42] | 100 to 1000 | –
42 | CN(C)c1cc(-c2ncc(F)c(O)n2)nn1Cc1ccccc1F [Compound 81] | > 1000 | –
43 | CCC(C)(N)CNc1nc(-c2cc(C(C)=O)n(Cc3ccccc3F)n2)ncc1F (stereo not drawn) [Compound 129, 1-(3-(4-((2-amino-2-methylbutyl)amino)-5-fluoropyrimidin-2-yl)-1-(2-fluorobenzyl)-1H-pyrazol-5-yl)ethanone] | > 1000 | –
44 | C[C@@](N)(CNc1nc(-c2cc(-c3ccon3)n(Cc3ccccc3F)n2)ncc1F)C(F)(F)F [Compound 106] | < 100 | –
45 | OC(CNc1nc(-c2cc(-c3ccon3)n(Cc3ccccc3F)n2)ncc1F)(c1nnc(C2CC2)o1)C(F)(F)F (stereo not drawn) [Compound 69, 2-(5-cyclopropyl-1,3,4-oxadiazol-2-yl)-1,1,1-trifluoro-3-((5-fluoro-2-(1-(2-fluorobenzyl)-5-(isoxazol-3-yl)-1H-pyrazol-3-yl)pyrimidin-4-yl)amino)propan-2-ol] | < 100 | –
46 | Oc1cc(CNc2nc(-c3cc(-c4ccon4)n(Cc4ccccc4F)n3)ncc2F)on1 [Compound 28] | – | < 100
47 | O=c1n(-c2nc(-c3cc(-c4ccon4)n(Cc4ccccc4F)n3)ncc2F)nc2n1CCNC2 [Compound 43] | > 1000 | –
48 | CC(=O)c1cc(-c2ncc(F)c(NC[C@@H](C(=O)O)C(C)C)n2)nn1Cc1ccccc1F [Compound 72] | 100 to 1000 | –
